# What was measured:
# Type in all cases: in vivo
# [1] = system: Alopecurus myosuroides (ALOMY); assay: Biological Example 1 glasshouse screen, pre-emergence herbicidal activity; details: 312 h, application rate 250 g/ha, evaluated after 13 days, read-out: ALOMY percentage phytotoxicity
# How it was run: (§1)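 Potted test species received a foliar or soil spray of active ingredient in acetone/water (50:50), 0.5% Tween 20, at 1 or 8 days after sowing for pre- and post-emergence respectively. Percentage phytotoxicity was assessed by eye after 13 days.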
# [2] = system: Echinochloa crus-galli (ECHCG); assay: as above; details: 312 h, application rate 250 g/ha, evaluated after 13 days, read-out: ECHCG percentage phytotoxicity
# How it was run: as §1
# Avena fatua (AVEFA) [3] = assay: as above; details: 312 h, application rate 250 g/ha, evaluated after 13 days, read-out: AVEFA percentage phytotoxicity
# How it was run: (§2)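 Pots in a glasshouse (24/16°C day/night, 14 h light, 65% humidity) were sprayed one day after sowing (pre-emergence) or after 8 days (post-emergence), using acetone/water (50:50) with 0.5% Tween 20. Phytotoxicity was scored visually as % damage (0-100) 13 days after application.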
# Lolium perenne (LOLPE) [4] = assay: as above; details: 312 h, application rate 250 g/ha, evaluated after 13 days, read-out: LOLPE percentage phytotoxicity
# How it was run: as §2
# [5] = system: Alopecurus myosuroides (ALOMY); assay: Biological Example 1 glasshouse screen, post-emergence herbicidal activity; details: 312 h, application rate 250 g/ha, evaluated after 13 days, read-out: ALOMY percentage phytotoxicity
# How it was run: as §1
# [6] = system: Echinochloa crus-galli (ECHCG); assay: as above; details: 312 h, application rate 250 g/ha, evaluated after 13 days, read-out: ECHCG percentage phytotoxicity
# How it was run: as §1
# Avena fatua (AVEFA) [7] = assay: as above; details: 312 h, application rate 250 g/ha, evaluated after 13 days, read-out: AVEFA percentage phytotoxicity
# How it was run: as §2
# Lolium perenne (LOLPE) [8] = assay: as above; details: 312 h, application rate 250 g/ha, evaluated after 13 days, read-out: LOLPE percentage phytotoxicity
# How it was run: as §2
# [9] = system: Alopecurus myosuroides (ALOMY); assay: Biological Example 4B (not-previously-formulated compounds) post-emergence herbicidal activity on grassy weeds; details: 14 DAA, technical compound in IF50 + Adigor, mean of two
# Experimental: (§3) Seeds of a variety of test species are sown in standard soil in pots. After cultivation for 14 days under controlled conditions in a glasshouse (at 22/16°C., day/night; 16 hours light; 65% humidity), the plants are sprayed with an aqueous spray solution derived from the formulation of the technical active ingredient dissolved in acetone plus IF50 containing
# (§4) 10.56 wt % Emulsogen™EL (castor oil ethoxylate, CAS Registry number 61791-12-6)
# (§5) 42.22 wt % N-Methyl pyrrolidone
# (§6) 42.22 wt % dipropylene glycol monoethyl ether
# (§7) at a 1:20 ratio of (technical active ingredient:IF50). The adjuvant Adigor™(an adjuvant containing inter alia methylated rapeseed oil, e.g. available from Syngenta) is added to form a 0.5% v/v solution. The test plants are then grown on under controlled conditions in the glasshouse (at 22/16°C., day/night; 16 hours light; 65% humidity) and are watered twice daily. After 14 days the test is evaluated (100%=total damage to plant; 0%=no damage to plant).
# (§8) […] Herbicidal activity (phytotoxicity) is evaluated visually, and an assessed percentage phytotoxicity score is given for each herbicidal application on each plant species (with 100%=total damage to plant; 0%=no damage to plant). Two repetitions are made for each experiment, and the mean herbicidal activity (phytotoxicity) data is reported.
# (§9) Test plants: Avena fatua (AVEFA), Lolium multiflorum (LOLMU), Setaria viridis (SETVI), Poa annua (POAAN), Alopecurus myosuroides (ALOMY). All five of these are grassy monocotyledonous weeds.
# Avena fatua (AVEFA) [10] = assay: as above; details: 14 DAA, technical compound in IF50 + Adigor, mean of two
# Experimental: as §3, §4, §5, §6, §7, §8, §9
# Poa annua (POAAN) = assay: as above; details: 14 DAA, technical compound in IF50 + Adigor, mean of two
# Experimental: as §3, §4, §5, §6, §7, §8, §9
# Setaria viridis (SETVI) = assay: as above; details: 14 DAA, technical compound in IF50 + Adigor, mean of two
# Experimental: as §3, §4, §5, §6, §7, §8, §9
# [11] = system: Lolium multiflorum (LOLMU); assay: as above; details: 14 DAA, technical compound in IF50 + Adigor, mean of two
# Experimental: as §3, §4, §5, §6, §7
# (§10) Post-emergence herbicidal activity (phytotoxicity) data, on certain grassy monocotyledonous weeds and cereal crops in a glasshouse, are measured 14 days after application of the herbicide (14 DAA), for (a) a […] the same time as the herbicide, and (b) for a post-emergence application rate of 30 g/ha of the test herbicide with 50 g/ha of cloquintocet-mexyl safener applied at substantially the same time as the herbicide. Herbicidal activity (phytotoxicity) is evaluated visually, and an assessed percentage phytotoxicity score is given for each herbicidal application on each plant species (with 100%=total damage to plant; 0%=no damage to plant). Two repetitions are made for each experiment, and the mean herbicidal activity (phytotoxicity) data is reported.
# as §9
# Winter Barley “Suzuka” = assay: Biological Example 4B post-emergence phytotoxicity on cereal crops; details: 14 DAA, technical compound in IF50 + Adigor, mean of two
# Experimental: as §3, §4, §5, §6, §7, §8
# Winter Wheat “Hereward” = assay: as above; details: 14 DAA, technical compound in IF50 + Adigor, mean of two
# Experimental: as §3, §4, §5, §6, §7, §8
# Spring Wheat “Teal” = assay: as above; details: 14 DAA, technical compound in IF50 + Adigor, mean of two
# Experimental: as §3, §4, §5, §6, §7, §10
# [12] = system: Spring Barley “Harrington”; assay: as above; details: 14 DAA, technical compound in IF50 + Adigor, mean of two
# Experimental: as §3, §4, §5, §6, §7
# Post-emergence herbicidal activity (phytotoxicity) data, on certain grassy monocotyledonous weeds and cereal crops in a glasshouse, are measured 14 days after application of the herbicide (14 DAA), for (a) a post-emergence application rate of 60 g/ha of the test herbicide with or without 50 g/ha of cloquintocet-mexyl safener applied at substantially the same time as the herbicide, and (b) for a post-emergence application rate of 30 g/ha of the test herbicide with 50 g/ha of cloquintocet-mexyl safener applied at substantially the same time as the herbicide. Herbicidal activity (phytotoxicity) is evaluated visually, and an assessed percentage phytotoxicity score is given for each herbicidal application on each plant species (with 100%=total damage to plant; 0%=no damage to plant). Two repetitions are made for each experiment, and the mean herbicidal activity (phytotoxicity) data is reported.
# [13] = system: Spring Barley “Harrington”; assay: as above; details: cloquintocet-mexyl 50 g/ha, 14 DAA, technical compound in IF50 + Adigor, mean of two
# [14] = 7.5 g/ha, cloquintocet-mexyl 50 g/ha
# [15] = 15 g/ha, cloquintocet-mexyl 50 g/ha
# [16] = 30 g/ha, cloquintocet-mexyl 50 g/ha
# [17] = 60 g/ha, cloquintocet-mexyl 0 g/ha
# [18] = 60 g/ha, cloquintocet-mexyl 50 g/ha
structure (smiles),measurement,setting,value
CC#Cc1cc(C)c(C2C(=O)CC(Cc3ccccn3)C2=O)c(CC)c1 (centres unmarked) [Compound A-26],pest or weed control at 250 g/ha,[1],100%
same,pest or weed control at 250 g/ha,[2],100%
same,pest or weed control at 250 g/ha,Avena fatua (AVEFA) [3],100%
same,pest or weed control at 250 g/ha,Lolium perenne (LOLPE) [4],100%
same,pest or weed control at 250 g/ha,[5],100%
same,pest or weed control at 250 g/ha,[6],100%
same,pest or weed control at 250 g/ha,Avena fatua (AVEFA) [7],100%
same,pest or weed control at 250 g/ha,Lolium perenne (LOLPE) [8],100%
same,ALOMY % phytotoxicity,[9]; [14],97%
same,ALOMY % phytotoxicity,[9]; [15],99%
same,ALOMY % phytotoxicity,[9]; [16],100%
same,ALOMY % phytotoxicity,[9]; [17],100%
same,ALOMY % phytotoxicity,[9]; [18],100%
same,AVEFA % phytotoxicity,Avena fatua (AVEFA) [10]; [14],83%
same,AVEFA % phytotoxicity,Avena fatua (AVEFA) [10]; [15],99%
same,AVEFA % phytotoxicity,Avena fatua (AVEFA) [10]; [16],100%
same,AVEFA % phytotoxicity,Avena fatua (AVEFA) [10]; [17],100%
same,AVEFA % phytotoxicity,Avena fatua (AVEFA) [10]; [18],100%
same,POAAN % phytotoxicity,Poa annua (POAAN); [14],0%
same,POAAN % phytotoxicity,Poa annua (POAAN); [15],13%
same,POAAN % phytotoxicity,Poa annua (POAAN); [16],33%
same,POAAN % phytotoxicity,Poa annua (POAAN); [17],73%
same,POAAN % phytotoxicity,Poa annua (POAAN); [18],70%
same,SETVI % phytotoxicity,Setaria viridis (SETVI); [14],68%
same,SETVI % phytotoxicity,Setaria viridis (SETVI); [15],95%
same,SETVI % phytotoxicity,Setaria viridis (SETVI); [16],100%
same,SETVI % phytotoxicity,Setaria viridis (SETVI); [17],100%
same,SETVI % phytotoxicity,Setaria viridis (SETVI); [18],100%
same,LOLMU % phytotoxicity,[11]; [14],90%
same,LOLMU % phytotoxicity,[11]; [15],100%
same,LOLMU % phytotoxicity,[11]; [16],100%
same,LOLMU % phytotoxicity,[11]; [17],100%
same,LOLMU % phytotoxicity,[11]; [18],100%
same,Winter Barley “Suzuka” phytotoxicity (%),Winter Barley “Suzuka”; [14],4%
same,Winter Barley “Suzuka” phytotoxicity (%),Winter Barley “Suzuka”; [15],53%
same,Winter Barley “Suzuka” phytotoxicity (%),Winter Barley “Suzuka”; [16],100%
same,Winter Barley “Suzuka” phytotoxicity (%),Winter Barley “Suzuka”; [17],100%
same,Winter Barley “Suzuka” phytotoxicity (%),Winter Barley “Suzuka”; [18],100%
same,Winter Wheat “Hereward” phytotoxicity (%),Winter Wheat “Hereward”; [14],30%
same,Winter Wheat “Hereward” phytotoxicity (%),Winter Wheat “Hereward”; [15],80%
same,Winter Wheat “Hereward” phytotoxicity (%),Winter Wheat “Hereward”; [16],90%
same,Winter Wheat “Hereward” phytotoxicity (%),Winter Wheat “Hereward”; [17],99%
same,Winter Wheat “Hereward” phytotoxicity (%),Winter Wheat “Hereward”; [18],98%
same,Spring Wheat “Teal” phytotoxicity (%),Spring Wheat “Teal”; [14],23%
same,Spring Wheat “Teal” phytotoxicity (%),Spring Wheat “Teal”; [15],78%
same,Spring Wheat “Teal” phytotoxicity (%),Spring Wheat “Teal”; [16],93%
same,Spring Wheat “Teal” phytotoxicity (%),Spring Wheat “Teal”; [17],100%
same,Spring Wheat “Teal” phytotoxicity (%),Spring Wheat “Teal”; [18],97%
same,Spring Barley “Harrington” phytotoxicity (%),[12]; [16],99%
same,Spring Barley “Harrington” phytotoxicity (%),[12]; [17],100%
same,Spring Barley “Harrington” phytotoxicity (%),[12]; [18],100%
same,Spring Barley “Harrington” phytotoxicity (%),[13]; 7.5 g/ha,10%
same,Spring Barley “Harrington” phytotoxicity (%),[13]; 15 g/ha,80%

# From US9107415B2, “2-(substituted-phenyl)-cyclopentane-1,3-dione compounds, and derivatives thereof” (Syngenta Limited, priority 2011, dated 2015)
